Measurements published in US9833497B2, “Human originated EGF domain proteins and use of the same” (CHENGDU SOURCEBIO LIMITED-LIABILITY COMPANY, priority 2013, dated 2017).

How the values were obtained:
Format in all cases: cell-based
Moraxella catarrhalis = test: MIC against Gram-negative bacteria: Moraxella catarrhalis; conditions: 5×10^5 CFU/mL
Outline: (§1)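 Bacteria grown in LB at 37° C with shaking to McFarland 0.5, pelleted and resuspended in fresh LB, then seeded at 5×10^5 CFU/mL per well. Purified recombinant human EGF domain proteins were two-fold serially diluted in triplicate and plates shaken at 37° C, 175 rpm. MIC is the lowest protein concentration with no bacterial growth.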

Proteus mirabilis = test: MIC against Gram-negative bacteria: Proteus mirabilis; conditions: 5×10^5 CFU/mL
Outline: as §1

E. coli BL21 = test: MIC against Gram-negative bacteria: E. coli BL21; conditions: 5×10^5 CFU/mL
Outline: as §1

Aeromonas hydrophila = test: MIC against Gram-negative bacteria: Aeromonas hydrophila; conditions: 5×10^5 CFU/mL
Outline: as §1

Proteus vulgaris = test: MIC against Gram-negative bacteria: Proteus vulgaris; conditions: 5×10^5 CFU/mL
Outline: as §1

Citrobacter diversus = test: MIC against Gram-negative bacteria: Citrobacter diversus; conditions: 5×10^5 CFU/mL
Outline: as §1

E. coli DH5α = test: Antibacterial activity: MIC and growth curve against E. coli DH5α in 96-well plate; conditions: minimal inhibitory concentration against E. coli DH5α; 96-well plate, 5×10^5 CFU/mL, 37° C., judged after 8 h
Outline: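 Log-phase DH5α (OD600 about 0.5, 37° C, 185 rpm in LB) was pelleted, resuspended in fresh LB and seeded at 5×10^5 CFU/mL with recombinant protein at 50, 25 and 12.5 μg/mL (two-fold series), in triplicate. Plates were shaken at 175 rpm, 37° C, and OD600 was read every 30 min. MIC was the lowest concentration with no growth.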

Enterobacter cloacae = test: MIC against Gram-negative bacteria: Enterobacter cloacae; conditions: 5×10^5 CFU/mL
Outline: as §1

Serratia marcescens = test: MIC against Gram-negative bacteria: Serratia marcescens; conditions: 5×10^5 CFU/mL
Outline: as §1

Pseudomonas aeruginosa = test: MIC against Gram-negative bacteria: Pseudomonas aeruginosa; conditions: 5×10^5 CFU/mL
Outline: as §1

Klebsiella pneumonia = test: MIC against Gram-negative bacteria: Klebsiella pneumonia; conditions: 5×10^5 CFU/mL
Outline: as §1

[1] = Moraxella catarrhalis, 10 h cultivation at 37° C.
[2] = Proteus mirabilis, 10 h cultivation at 37° C.
[3] = Aeromonas hydrophila, 10 h cultivation at 37° C.
[4] = Proteus vulgaris, 10 h cultivation at 37° C.
[5] = Citrobacter diversus, 10 h cultivation at 37° C.
[6] = Enterobacter cloacae, 10 h cultivation at 37° C.
[7] = Serratia marcescens, 10 h cultivation at 37° C.
[8] = Pseudomonas aeruginosa, 10 h cultivation at 37° C.
[9] = Klebsiella pneumonia, 10 h cultivation at 37° C.
[10] = Moraxella catarrhalis, 96-well plate, 37° C., 10 h
[11] = Proteus mirabilis, 96-well plate, 37° C., 10 h
[12] = Aeromonas hydrophila, 96-well plate, 37° C., 10 h
[13] = Proteus vulgaris, 96-well plate, 37° C., 10 h
[14] = Citrobacter diversus, 96-well plate, 37° C., 10 h
[15] = Enterobacter cloacae, 96-well plate, 37° C., 10 h
[16] = Serratia marcescens, 96-well plate, 37° C., 10 h
[17] = Pseudomonas aeruginosa, 96-well plate, 37° C., 10 h
[18] = Klebsiella pneumonia, 96-well plate, 37° C., 10 h

Substance: PRT1395 (DCPRNCHGNGECVSGVCHCFPGFLGADCA; listed as Homo sapiens)
- MIC against M. catarrhalis (Moraxella catarrhalis; [1]): 12.5 µg/mL
- MIC against P. mirabilis (Proteus mirabilis; [2]): 12.5 µg/mL
- MIC against E. coli BL21 (E. coli BL21; 10 h cultivation at 37° C.): 25 µg/mL
- MIC against A. hydrophila (Aeromonas hydrophila; [3]): 100 µg/mL
- MIC against P. vulgaris (Proteus vulgaris; [4]): 12.5 µg/mL
- MIC against C. diversus (Citrobacter diversus; [5]): 12.5 µg/mL
- MIC (E. coli DH5α): 12.5 µg/mL
- MIC against E. cloacae (Enterobacter cloacae; [6]): 12.5 µg/mL
- MIC against S. marcescens (Serratia marcescens; [7]): 25 µg/mL
- MIC against P. aeruginosa (Pseudomonas aeruginosa; [8]): 12.5 µg/mL
- MIC against K. pneumonia (Klebsiella pneumonia; [9]): 25 µg/mL

Substance: PRT721 (DIDECTEMPFVCSQKCENVIGSYICKCAPGYLREPDGKTCR; listed as Homo sapiens)
- MIC M. catarrhalis (Moraxella catarrhalis; 96-well plate, 37° C., 10 h): 50 µg/mL
- MIC P. mirabilis (Proteus mirabilis; 96-well plate, 37° C., 10 h): 12.5 µg/mL
- MIC E. coli BL21 (E. coli BL21; 96-well plate, 37° C., 10 h): 12.5 µg/mL
- MIC A. hydrophila (Aeromonas hydrophila; 96-well plate, 37° C., 10 h): 12.5 µg/mL
- MIC P. vulgaris (Proteus vulgaris; 96-well plate, 37° C., 10 h): 12.5 µg/mL
- MIC C. diversus (Citrobacter diversus; 96-well plate, 37° C., 10 h): 25 µg/mL
- MIC (E. coli DH5α): 25 µg/mL
- MIC E. cloacae (Enterobacter cloacae; 96-well plate, 37° C., 10 h): 25 µg/mL
- MIC S. marcescens (Serratia marcescens; 96-well plate, 37° C., 10 h): 50 µg/mL
- MIC P. aeruginosa (Pseudomonas aeruginosa; 96-well plate, 37° C., 10 h): 25 µg/mL
- MIC K. pneumonia (Klebsiella pneumonia; 96-well plate, 37° C., 10 h): 50 µg/mL

Substance: PRT3 (DGDQCESNPCLNGGSCKDDINSYECWCPFGFEGKNCE; listed as Homo sapiens)
- MIC (μg/mL) M. catarrhalis (Moraxella catarrhalis; [10]): 12.5 µg/mL
- MIC (μg/mL) P. mirabilis (Proteus mirabilis; [11]): 12.5 µg/mL
- MIC (μg/mL) E. coli BL21 (E. coli BL21; 96-well plate, 37° C., 10 h): 25 µg/mL
- MIC (μg/mL) A. hydrophila (Aeromonas hydrophila; [12]): 25 µg/mL
- MIC (μg/mL) P. vulgaris (Proteus vulgaris; [13]): 25 µg/mL
- MIC (μg/mL) C. diversus (Citrobacter diversus; [14]): 25 µg/mL
- MIC (E. coli DH5α): 12.5 µg/mL
- MIC (μg/mL) E. cloacae (Enterobacter cloacae; [15]): 12.5 µg/mL
- MIC (μg/mL) S. marcescens (Serratia marcescens; [16]): 12.5 µg/mL
- MIC (μg/mL) P. aeruginosa (Pseudomonas aeruginosa; [17]): 25 µg/mL
- MIC (μg/mL) K. pneumonia (Klebsiella pneumonia; [18]): 12.5 µg/mL

Substance: PRT25 (PGVCRNGGTCTDAPNGGFRCQCPAGGAFEGPRCE; listed as Homo sapiens)
- MIC (μg/mL) M. catarrhalis (Moraxella catarrhalis; [10]): 25 µg/mL
- MIC (μg/mL) P. mirabilis (Proteus mirabilis; [11]): 12.5 µg/mL
- MIC (μg/mL) E. coli BL21 (E. coli BL21; 96-well plate, 37° C., 10 h): 50 µg/mL
- MIC (μg/mL) A. hydrophila (Aeromonas hydrophila; [12]): 12.5 µg/mL
- MIC (μg/mL) P. vulgaris (Proteus vulgaris; [13]): 25 µg/mL
- MIC (μg/mL) C. diversus (Citrobacter diversus; [14]): 100 µg/mL
- MIC (E. coli DH5α): 50 µg/mL
- MIC (μg/mL) E. cloacae (Enterobacter cloacae; [15]): 25 µg/mL
- MIC (μg/mL) S. marcescens (Serratia marcescens; [16]): 12.5 µg/mL
- MIC (μg/mL) P. aeruginosa (Pseudomonas aeruginosa; [17]): 25 µg/mL
- MIC (μg/mL) K. pneumonia (Klebsiella pneumonia; [18]): 50 µg/mL

Substance: PRT1375 (SIRTCPSNCHGRGRCEEGRCLCDPGYTGPTC; listed as Homo sapiens)
- MIC against M. catarrhalis (Moraxella catarrhalis; [1]): 25 µg/mL
- MIC against P. mirabilis (Proteus mirabilis; [2]): 50 µg/mL
- MIC against E. coli BL21 (E. coli BL21; 10 h cultivation at 37° C.): 12.5 µg/mL
- MIC against A. hydrophila (Aeromonas hydrophila; [3]): 25 µg/mL
- MIC against P. vulgaris (Proteus vulgaris; [4]): 25 µg/mL
- MIC against C. diversus (Citrobacter diversus; [5]): 12.5 µg/mL
- MIC (E. coli DH5α): 12.5 µg/mL
- MIC against E. cloacae (Enterobacter cloacae; [6]): 12.5 µg/mL
- MIC against S. marcescens (Serratia marcescens; [7]): 12.5 µg/mL
- MIC against P. aeruginosa (Pseudomonas aeruginosa; [8]): 12.5 µg/mL
- MIC against K. pneumonia (Klebsiella pneumonia; [9]): 12.5 µg/mL

Substance: PRT620 (CPCHNGFSCSVMPETEEVVCNNCPPGVTGARCELCADGYFGDPFGEHGPVRPCQP; listed as Homo sapiens)
- MIC M. catarrhalis (Moraxella catarrhalis; 96-well plate, 37° C., 10 h): 50 µg/mL
- MIC P. mirabilis (Proteus mirabilis; 96-well plate, 37° C., 10 h): 25 µg/mL
- MIC E. coli BL21 (E. coli BL21; 96-well plate, 37° C., 10 h): 12.5 µg/mL
- MIC A. hydrophila (Aeromonas hydrophila; 96-well plate, 37° C., 10 h): 50 µg/mL
- MIC P. vulgaris (Proteus vulgaris; 96-well plate, 37° C., 10 h): 12.5 µg/mL
- MIC C. diversus (Citrobacter diversus; 96-well plate, 37° C., 10 h): 12.5 µg/mL
- MIC (E. coli DH5α): 25 µg/mL
- MIC E. cloacae (Enterobacter cloacae; 96-well plate, 37° C., 10 h): 12.5 µg/mL
- MIC S. marcescens (Serratia marcescens; 96-well plate, 37° C., 10 h): 25 µg/mL
- MIC P. aeruginosa (Pseudomonas aeruginosa; 96-well plate, 37° C., 10 h): 25 µg/mL
- MIC K. pneumonia (Klebsiella pneumonia; 96-well plate, 37° C., 10 h): 50 µg/mL

Substance: PRT187 (KVDRCTSNPCANGGQCLNRGPSRMCRCRPGFTGTYCE; listed as Homo sapiens)
- MIC (μg/mL) M. catarrhalis (Moraxella catarrhalis; M. catarrhalis, 10 h cultivation at 37° C.): 12.5 µg/mL
- MIC (μg/mL) P. mirabilis (Proteus mirabilis; P. mirabilis, 10 h cultivation at 37° C.): 25 µg/mL
- MIC (μg/mL) E. coli BL21 (E. coli BL21; 10 h cultivation at 37° C.): 12.5 µg/mL
- MIC (μg/mL) A. hydrophila (Aeromonas hydrophila; A. hydrophila, 10 h cultivation at 37° C.): 12.5 µg/mL
- MIC (μg/mL) P. vulgaris (Proteus vulgaris; P. vulgaris, 10 h cultivation at 37° C.): 12.5 µg/mL
- MIC (μg/mL) C. diversus (Citrobacter diversus; C. diversus, 10 h cultivation at 37° C.): 25 µg/mL
- MIC (E. coli DH5α): 25 µg/mL
- MIC (μg/mL) E. cloacae (Enterobacter cloacae; E. cloacae, 10 h cultivation at 37° C.): 25 µg/mL
- MIC (μg/mL) S. marcescens (Serratia marcescens; S. marcescens, 10 h cultivation at 37° C.): 25 µg/mL
- MIC (μg/mL) P. aeruginosa (Pseudomonas aeruginosa; P. aeruginosa, 10 h cultivation at 37° C.): 25 µg/mL
- MIC (μg/mL) K. pneumonia (Klebsiella pneumonia; K. pneumonia, 10 h cultivation at 37° C.): 12.5 µg/mL
